This test addresses T1, Androgen Receptor (AR) protein (Homo sapiens, UniProt P10275, T878A).
T1 construct: endogenous in cells; host or cells: LNCaP
Briefly: Androgen Receptor (AR) protein degradation assay in LNCaP cells, western blotting. Conditions: 20 h; for inhibition at 0.01 µM: 0.01 μM compound; for inhibition at 0.1 µM: 0.1 μM compound; for inhibition at 1 µM: 1 μM compound; for inhibition at 10 µM: 10 μM compound. The test is classed as cell-based. Summed up:
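LNCaP prostate cancer cells were cultured 3 days, then treated with compound for 20 h. Lysates in 1% SDS buffer were normalised by BCA, and 8 μg protein was run on 4–12% Bis-Tris gels. AR was immunoblotted with chemiluminescence, using GAPDH/β-actin as loading controls.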
(In general: In western blotting, separated proteins are transferred to a membrane and probed.)

T1 sequence (P10275 whole entry T878A): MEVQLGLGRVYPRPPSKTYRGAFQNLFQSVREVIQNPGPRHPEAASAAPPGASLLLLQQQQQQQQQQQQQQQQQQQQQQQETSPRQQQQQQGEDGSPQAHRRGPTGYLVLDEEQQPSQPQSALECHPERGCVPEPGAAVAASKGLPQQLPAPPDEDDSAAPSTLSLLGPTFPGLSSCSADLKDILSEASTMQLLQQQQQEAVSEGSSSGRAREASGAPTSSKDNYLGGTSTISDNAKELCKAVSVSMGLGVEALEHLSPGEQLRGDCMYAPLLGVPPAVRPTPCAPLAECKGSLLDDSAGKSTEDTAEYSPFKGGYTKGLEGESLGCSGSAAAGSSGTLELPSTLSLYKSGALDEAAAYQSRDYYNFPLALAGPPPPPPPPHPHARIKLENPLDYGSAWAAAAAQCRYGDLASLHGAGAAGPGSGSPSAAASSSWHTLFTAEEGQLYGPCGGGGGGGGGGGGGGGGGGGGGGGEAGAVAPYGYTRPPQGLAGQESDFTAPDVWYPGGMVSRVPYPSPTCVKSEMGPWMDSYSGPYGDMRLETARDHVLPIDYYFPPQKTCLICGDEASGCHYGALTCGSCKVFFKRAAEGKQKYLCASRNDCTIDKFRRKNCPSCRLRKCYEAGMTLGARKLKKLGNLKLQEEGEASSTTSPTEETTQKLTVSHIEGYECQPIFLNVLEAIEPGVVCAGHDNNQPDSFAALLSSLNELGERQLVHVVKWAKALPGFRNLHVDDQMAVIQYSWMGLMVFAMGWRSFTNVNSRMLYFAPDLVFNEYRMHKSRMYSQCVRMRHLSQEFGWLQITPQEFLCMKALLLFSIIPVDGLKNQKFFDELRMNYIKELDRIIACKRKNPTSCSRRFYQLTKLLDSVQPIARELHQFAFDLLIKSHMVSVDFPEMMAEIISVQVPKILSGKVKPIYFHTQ
T1 sequence (Q96SW2 whole entry partner): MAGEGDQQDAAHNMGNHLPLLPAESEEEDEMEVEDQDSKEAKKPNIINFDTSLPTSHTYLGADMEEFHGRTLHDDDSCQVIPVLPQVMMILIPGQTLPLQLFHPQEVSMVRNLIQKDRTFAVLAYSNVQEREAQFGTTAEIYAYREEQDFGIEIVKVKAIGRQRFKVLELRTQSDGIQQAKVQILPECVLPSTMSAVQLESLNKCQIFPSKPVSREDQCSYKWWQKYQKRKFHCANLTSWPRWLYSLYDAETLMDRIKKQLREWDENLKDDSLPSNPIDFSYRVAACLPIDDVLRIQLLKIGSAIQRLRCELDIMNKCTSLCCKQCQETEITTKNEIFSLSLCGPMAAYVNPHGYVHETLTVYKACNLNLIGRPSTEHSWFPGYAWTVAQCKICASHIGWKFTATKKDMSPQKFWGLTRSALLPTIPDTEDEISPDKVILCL

The inhibition is the change of the read-out against control, counted positive when it falls. On to `N#Cc1ccc(N2CCC(C(=O)Nc3ccc(N4CCC(CN5CC6(CCN(c7ccc8c(c7)C(=O)N(C7CCC(=O)NC7=O)C8=O)CC6)C5)CC4)cn3)CC2)cc1Cl` (stereo not shown) [Example 50, 1-(3-chloro-4-cyanophenyl)-N-(5-(4-((7-(2-(2,6-dioxopiperidin-3-yl)-1,3-dioxoisoindolin-5-yl)-2,7-diazaspiro[3.5]nonan-2-yl)methyl)piperidin-1-yl)pyridin-2-yl)piperidine-4-carboxamide], for which the inhibition at 0.01 µM amounted to 61%, the inhibition at 0.1 µM turned out to be 97%, the inhibition at 1 µM is 99% and the inhibition at 10 µM amounted to 98%.

As for `CC1(C(=O)Nc2ccc(N3CCC(CN4CC5(CCN(c6ccc7c(c6)C(=O)N(C6CCC(=O)NC6=O)C7=O)CC5)C4)CC3)cn2)CCN(c2ccc(C#N)c(C(F)(F)F)c2)CC1` (stereo not shown) [Example 51, 1-(4-cyano-3-(trifluoromethyl)phenyl)-N-(5-(4-((7-(2-(2,6-dioxopiperidin-3-yl)-1,3-dioxoisoindolin-5-yl)-2,7-diazaspiro[3.5]nonan-2-yl)methyl)piperidin-1-yl)pyridin-2-yl)-4-methylpiperidine-4-carboxamide], the inhibition at 0.01 µM worked out at 33%, the inhibition at 0.1 µM is 85% and the inhibition at 1 µM was determined as 94%.

`N#Cc1ccc(N2CCC(C(=O)Nc3ccc(N4CCC(CN5CC6(CCN(c7ccc8c(=O)n(C9CCC(=O)NC9=O)nnc8c7)CC6)C5)CC4)cn3)CC2)cc1C(F)(F)F` (stereo not shown) [Example 52, 1-(4-cyano-3-(trifluoromethyl)phenyl)-N-(5-(4-((7-(3-(2,6-dioxopiperidin-3-yl)-4-oxo-3,4-dihydrobenzo[d][1,2,3]triazin-7-yl)-2,7-diazaspiro[3.5]nonan-2-yl)methyl)piperidin-1-yl)pyridin-2-yl)piperidine-4-carboxamide]: the inhibition at 0.01 µM came to 50%, the inhibition at 0.1 µM was 91% and the inhibition at 1 µM was 97%.

With `N#Cc1ccc(N2CCC(C(=O)Nc3ccc(N4CCC(CN5CC6(CCN(c7ccc8nnn(C9CCC(=O)NC9=O)c(=O)c8c7)CC6)C5)CC4)cn3)CC2)cc1C(F)(F)F` (stereo not shown) [Example 53, 1-(4-cyano-3-(trifluoromethyl)phenyl)-N-(5-(4-((7-(3-(2,6-dioxopiperidin-3-yl)-4-oxo-3,4-dihydrobenzo[d][1,2,3]triazin-6-yl)-2,7-diazaspiro[3.5]nonan-2-yl)methyl)piperidin-1-yl)pyridin-2-yl)piperidine-4-carboxamide], the inhibition at 0.01 µM stood at 27%, the inhibition at 0.1 µM is 89% and the inhibition at 1 µM came to 93%.

Consider `N#Cc1ccc(N2CCC(F)(C(=O)Nc3ccc(N4CCC(CN5CC6(CCN(c7ccc8c(c7)C(=O)N(C7CCC(=O)NC7=O)C8=O)CC6)C5)CC4)cn3)CC2)cc1C(F)(F)F` (stereo not shown) [Example 54, 1-(4-cyano-3-(trifluoromethyl)phenyl)-N-(5-(4-((7-(2-(2,6-dioxopiperidin-3-yl)-1,3-dioxoisoindolin-5-yl)-2,7-diazaspiro[3.5]nonan-2-yl)methyl)piperidin-1-yl)pyridin-2-yl)-4-fluoropiperidine-4-carboxamide], for which the inhibition at 0.01 µM worked out at 60%, the inhibition at 0.1 µM was 95% and the inhibition at 1 µM was determined as 98%.

Take `N#Cc1ccc(N2CCC(O)(C(=O)Nc3ccc(N4CCC(CN5CC6(CCN(c7ccc8c(c7)C(=O)N(C7CCC(=O)NC7=O)C8=O)CC6)C5)CC4)cn3)CC2)cc1C(F)(F)F` (stereo not shown) [Example 55, 1-(4-cyano-3-(trifluoromethyl)phenyl)-N-(5-(4-((7-(2-(2,6-dioxopiperidin-3-yl)-1,3-dioxoisoindolin-5-yl)-2,7-diazaspiro[3.5]nonan-2-yl)methyl)piperidin-1-yl)pyridin-2-yl)-4-hydroxypiperidine-4-carboxamide]: the inhibition at 0.01 µM turned out to be 34%, the inhibition at 0.1 µM turned out to be 69% and the inhibition at 1 µM is 95%.

As to `N#Cc1ccc(N2CCC(CC(=O)Nc3ccc(N4CCC(CN5CC6(CCN(c7ccc8c(c7)C(=O)N(C7CCC(=O)NC7=O)C8=O)CC6)C5)CC4)cn3)C2)cc1C(F)(F)F` (stereo not shown) [Example 56, 2-(1-(4-cyano-3-(trifluoromethyl)phenyl)pyrrolidin-3-yl)-N-(5-(4-((7-(2-(2,6-dioxopiperidin-3-yl)-1,3-dioxoisoindolin-5-yl)-2,7-diazaspiro[3.5]nonan-2-yl)methyl)piperidin-1-yl)pyridin-2-yl)acetamide], the inhibition at 0.01 µM is -8%, the inhibition at 0.1 µM stood at 87% and the inhibition at 1 µM turned out to be 95%.

As to `N#Cc1ncc(N2CCC(C(=O)Nc3ccc(N4CCC(CN5CC6(CCN(c7ccc8c(c7)C(=O)N(C7CCC(=O)NC7=O)C8=O)CC6)C5)CC4)cn3)CC2)cc1C(F)(F)F` (stereo not shown) [Example 57, 1-(6-cyano-5-(trifluoromethyl)pyridin-3-yl)-N-(5-(4-((7-(2-(2,6-dioxopiperidin-3-yl)-1,3-dioxoisoindolin-5-yl)-2,7-diazaspiro[3.5]nonan-2-yl)methyl)piperidin-1-yl)pyridin-2-yl)piperidine-4-carboxamide], the inhibition at 0.01 µM is 43%, the inhibition at 0.1 µM was 85% and the inhibition at 1 µM is 96%.

On to `N#Cc1ncc(N2CCC(F)(C(=O)Nc3ccc(N4CCC(CN5CC6(CCN(c7ccc8c(c7)C(=O)N(C7CCC(=O)NC7=O)C8=O)CC6)C5)CC4)cn3)CC2)cc1C(F)(F)F` (stereo not shown) [Example 58, 1-(6-cyano-5-(trifluoromethyl)pyridin-3-yl)-N-(5-(4-((7-(2-(2,6-dioxopiperidin-3-yl)-1,3-dioxoisoindolin-5-yl)-2,7-diazaspiro[3.5]nonan-2-yl)methyl)piperidin-1-yl)pyridin-2-yl)-4-fluoropiperidine-4-carboxamide], for which the inhibition at 0.01 µM came to 16%, the inhibition at 0.1 µM came out at 41% and the inhibition at 1 µM stood at 77%.

On to `N#Cc1ccc(N2CCC(C(=O)Nc3ccc(N4CCC(CN5CC6(CCN(c7ccc8c(c7)C(=O)N(C7CCC(=O)NC7=O)C8=O)CC6)C5)CC4)nc3)CC2)cc1C(F)(F)F` (stereo not shown) [Example 59, 1-(4-cyano-3-(trifluoromethyl)phenyl)-N-(6-(4-((7-(2-(2,6-dioxopiperidin-3-yl)-1,3-dioxoisoindolin-5-yl)-2,7-diazaspiro[3.5]nonan-2-yl)methyl)piperidin-1-yl)pyridin-3-yl)piperidine-4-carboxamide], for which the inhibition at 0.01 µM is 9%, the inhibition at 0.1 µM turned out to be 32%, the inhibition at 1 µM is 47% and the inhibition at 10 µM came to 68%.

Regarding `N#Cc1ccc(N2CCC(C(=O)Nc3ccc(N4CCC(CN5CC6(CCN(c7ccc8c(c7)C(=O)N(C7CCC(=O)NC7=O)C8=O)CC6)C5)CC4)nc3)CC2)cc1Cl` (stereo not shown) [Example 60, 1-(3-chloro-4-cyanophenyl)-N-(6-(4-((7-(2-(2,6-dioxopiperidin-3-yl)-1,3-dioxoisoindolin-5-yl)-2,7-diazaspiro[3.5]nonan-2-yl)methyl)piperidin-1-yl)pyridin-3-yl)piperidine-4-carboxamide], the inhibition at 0.01 µM worked out at 16%, the inhibition at 0.1 µM was 32%, the inhibition at 1 µM amounted to 32% and the inhibition at 10 µM was determined as 66%.

On to `N#Cc1ccc(N2CCC(C(=O)Nc3ccc(N4CC[C@@H](CN5CC6(CCN(c7ccc8c(c7)C(=O)N(C7CCC(=O)NC7=O)C8=O)CC6)C5)C4)cn3)CC2)cc1C(F)(F)F` (stereo partly drawn) [Example 61, 1-(4-cyano-3-(trifluoromethyl)phenyl)-N-(5-((3S)-3-((7-(2-(2,6-dioxopiperidin-3-yl)-1,3-dioxoisoindolin-5-yl)-2,7-diazaspiro[3.5]nonan-2-yl)methyl)pyrrolidin-1-yl)pyridin-2-yl)piperidine-4-carboxamide], for which the inhibition at 0.01 µM was found to be 57%, the inhibition at 0.1 µM was determined as 94.5%, the inhibition at 1 µM stood at 97.5% and the inhibition at 10 µM turned out to be 96%.

In the case of `N#Cc1ccc(N2CCC(C(=O)Nc3ccc(N4CC[C@H](CN5CC6(CCN(c7ccc8c(c7)C(=O)N(C7CCC(=O)NC7=O)C8=O)CC6)C5)C4)cn3)CC2)cc1C(F)(F)F` (stereo partly drawn) [Example 62, 1-(4-cyano-3-(trifluoromethyl)phenyl)-N-(5-((3R)-3-((7-(2-(2,6-dioxopiperidin-3-yl)-1,3-dioxoisoindolin-5-yl)-2,7-diazaspiro[3.5]nonan-2-yl)methyl)pyrrolidin-1-yl)pyridin-2-yl)piperidine-4-carboxamide], the inhibition at 0.01 µM amounted to 69%, the inhibition at 0.1 µM is 95%, the inhibition at 1 µM came to 96% and the inhibition at 10 µM was determined as 87.5%.

`N#Cc1ccc(N2CCC(C(=O)Nc3ccc(N4CCC(CN5CCC6(CC5)CN(c5ccc7c(c5)C(=O)N(C5CCC(=O)NC5=O)C7=O)C6)CC4)cn3)CC2)cc1C(F)(F)F` (stereo not shown) [Example 63, 1-(4-cyano-3-(trifluoromethyl)phenyl)-N-(5-(4-((2-(2-(2,6-dioxopiperidin-3-yl)-1,3-dioxoisoindolin-5-yl)-2,7-diazaspiro[3.5]nonan-7-yl)methyl)piperidin-1-yl)pyridin-2-yl)piperidine-4-carboxamide]: the inhibition at 0.01 µM came to 45%, the inhibition at 0.1 µM was 94%, the inhibition at 1 µM was found to be 98.5% and the inhibition at 10 µM came out at 94.5%.

For `N#Cc1ccc(N2CCC(C(=O)Nc3ccc(N4CCC(CN5CCC6(CC5)CN(c5ccc7c(c5)C(=O)N(C5CCC(=O)NC5=O)C7=O)C6)CC4)cn3)CC2)cc1Cl` (stereo not shown) [Example 64, 1-(3-chloro-4-cyanophenyl)-N-(5-(4-((2-(2-(2,6-dioxopiperidin-3-yl)-1,3-dioxoisoindolin-5-yl)-2,7-diazaspiro[3.5]nonan-7-yl)methyl)piperidin-1-yl)pyridin-2-yl)piperidine-4-carboxamide], the inhibition at 0.01 µM turned out to be 71.5%, the inhibition at 0.1 µM was found to be 97%, the inhibition at 1 µM was 98.5% and the inhibition at 10 µM came to 98.5%.

The values are drawn from patent US12122763B2, “Substituted piperidines for androgen receptor degradation” (UBIX THERAPEUTICS, INC., priority 2020, dated 2024).
